Test results as given in PubChem BioAssay AID1626 (SRMLSC, 2009).

Tested on: M. tuberculosis H37Rv growth inhibition
Assay: M. tuberculosis H37Rv growth inhibitors, H37Rv strain (AID 1626)
Settings: for IC90: measured here: IC90 against H37Rv; for CC50: measured here: Vero cell cytotoxicity

O=C(COC(=O)c1ccccc1Br)NCCC1=CCCCC1
IC50: 17.6 µM
IC90: > 100 µM

CCCCCC(=O)c1ccc(O)cc1O
IC50: 63.3 µM
IC90: > 100 µM

Cn1c(=O)[nH]c(=O)c2c1nc(N1CCCCC1)n2CCCSc1nc2ccccc2s1
CC50: > 40 µM

C#CCOCCOCCOCCNc1nc(N2CCN(C(=O)[C@H](Cc3cc4ccccc4[nH]3)n3cc([C@@H](N)CC(C)C)nn3)CC2)nc(N2CCN(C(=O)[C@H](Cc3cc4ccccc4[nH]3)n3cc([C@@H](N)CC(C)C)nn3)CC2)n1
IC50: 4.23 µM
IC90: 7.58 µM

COc1ccc(/C=C/C(=O)Oc2ccc(C)c(C)c2)cc1OC
IC50: 9.43 µM
IC90: > 100 µM

CCn1c(NC(=O)c2cccc(Cn3cc(Cl)cn3)c2)nc2ccccc21
IC50: 3.65 µM
IC90: > 100 µM
CC50: > 40 µM

O=C1CC(=C(c2ccccc2)c2ccccc2)C(=O)N1CCCCN1CCN(c2ccccc2)CC1
IC50: 17.8 µM
IC90: 22.7 µM
CC50: > 40 µM

COc1ccc(-c2n(CC(=O)OC3CC(C)CCC3C(C)C)c3ccccc3[n+]2C)cc1 (stereo not drawn)
IC50: 0.985 µM
IC90: 2.37 µM
CC50: 23.9 µM

Cc1ccc(C(=O)Oc2cccc(NC(=O)c3ccccc3)c2)cc1C
IC50: 7.76 µM
IC90: 12.9 µM

O=c1cc(C(Cl)(Cl)Cl)oc2c1ccc1ccccc12
IC50: 1.1 µM
IC90: 1.8 µM
CC50: 10.9 µM

Cc1nc(NC(=O)CSc2nnc(-c3ccc4c(c3)OCO4)o2)c(Cl)cc1Cl
IC90: > 100 µM

COc1ccc(C2(CNC(=O)c3cc([N+](=O)[O-])cc([N+](=O)[O-])c3)CCCC2)cc1OC
IC50: < 0.195 µM
IC90: 0.686 µM

Cc1ccc(NC(=O)/C=C/c2ccc([N+](=O)[O-])s2)cc1
IC50: 45.9 µM
IC90: > 100 µM
CC50: > 40 µM

O=C(C[n+]1cc(-c2ccc(Cl)cc2)n2c1CCC2)N1c2ccccc2Sc2ccccc21
IC50: 12.1 µM
IC90: 13.7 µM

O=C(CSc1nc2ccccc2o1)Nc1nc(-c2ccccc2)c(-c2ccccc2)s1
IC50: 10.1 µM
IC90: > 100 µM
CC50: > 40 µM

O=C(NCc1ccco1)c1cc([N+](=O)[O-])cc([N+](=O)[O-])c1
IC50: 1.46 µM
IC90: 1.65 µM

CC1CCCN(C(=O)C2CCC(CNc3c(N4CCCCC4)c(=O)c3=O)CC2)C1 (stereo not drawn)
IC50: 11.7 µM
IC90: > 100 µM

O=C1C(=O)c2ccc(-c3ccccc3)cc2-c2ccccc21
IC50: 1.47 µM
IC90: 1.66 µM
CC50: 3.09 µM

O=C(NCCN1CCOCC1)c1ccc([N+](=O)[O-])cc1[N+](=O)[O-]
IC50: 2.11 µM
IC90: 3.4 µM

CCCCCc1cc(=O)oc2c(C(CCN3CCCC(C)C3)c3ccc(OC)cc3)c(OC)cc(OC)c12 (stereo not drawn)
IC50: 2.18 µM
IC90: 3.26 µM
CC50: 17.1 µM

COc1cccc(C2C(C(=O)Nc3nc4ccccc4s3)=C(C)NC3=C2C(=O)CC(C)(C)C3)c1OC (stereo not drawn)
IC90: > 100 µM
CC50: > 40 µM

CCOc1ccc(N=c2scc(-c3ccccc3)n2CCO)cc1
IC50: 35.1 µM
IC90: > 100 µM

CCOc1ccc(N2CCc3c(C)nc(SC)nc32)cc1
IC50: < 0.195 µM
IC90: 40.3 µM
CC50: 27.1 µM

Cn1cnc([N+](=O)[O-])c1S(=O)(=O)c1cccc(Cl)c1
IC50: 10.9 µM
IC90: 11.8 µM
CC50: 18.7 µM

Cc1[nH]c2ccccc2c1C(=O)COC(=O)c1ccc([N+](=O)[O-])s1
CC50: 31.8 µM

Cc1ccc(-c2nnc3sc(CCc4ccccc4)nn23)cc1
IC50: 1.63 µM
IC90: 6.83 µM

Cc1ccc(C(=O)CNc2ccc(C)c(Cl)c2)cc1
IC90: > 100 µM

O=C(/C=C/c1ccco1)Nc1nc(-c2ccccn2)cs1
IC50: 0.446 µM
IC90: 3.54 µM
CC50: > 40 µM

COc1ccc(Br)cc1C(C[N+](=O)[O-])c1c(N)n(C)c(=O)n(C)c1=O (stereo not drawn)
IC50: 8.08 µM
IC90: 12.5 µM
CC50: 9.3 µM

Cc1ccc2nc(N(CCCN(C)C)C(=O)c3ccc4c(c3)CCCC4)sc2c1
IC50: 8.72 µM
IC90: 11.8 µM
CC50: 22.6 µM

CCCCOC(=O)c1ccc(NC(=O)C(=O)NCc2ccccn2)cc1
IC90: > 100 µM

O=C(Nc1nnc(-c2ccc(Cl)cc2)o1)C1CCCCC1
IC50: 3.32 µM
IC90: > 100 µM
CC50: > 40 µM

COc1ccc(OCc2n(CC(=O)OC3CC(C)CCC3C(C)C)c3ccccc3[n+]2C)cc1 (stereo not drawn)
IC50: 3.34 µM
IC90: 5.49 µM
CC50: 26.4 µM

O=C(COC(=O)Cc1ccccc1)Nc1ccc(SC(F)F)cc1
IC50: 36.4 µM
IC90: > 100 µM

COc1ccc(-n2c(C)nc3sc4c(c3c2=O)CCCC4)cc1
IC50: 11.7 µM
IC90: 13.3 µM

COc1cccc(C2C3=C(N=c4s/c(=C\c5cccc(O)c5)c(=O)n42)c2ccccc2CC3)c1OC (stereo not drawn)
IC50: 8.79 µM
IC90: 13.9 µM
CC50: 23.9 µM

Cc1ccc(-c2cc(C(F)F)n3ncc(C(=O)Nc4c(C)nn(Cc5ccccc5Cl)c4C)c3n2)cc1
IC50: 2.16 µM
IC90: > 100 µM
CC50: 24.4 µM

Cc1ccc(NC(=O)COc2ccc(-n3ccnc3)cc2)cc1Cl
IC50: 3.82 µM
IC90: 12.2 µM

COc1ccc(C(=O)CSc2nc(-c3ccccn3)nc(C)c2Cl)cc1
IC50: 6.11 µM
IC90: 6.84 µM
CC50: > 40 µM

O=c1c2ccccc2c(C=NC2CCN(Cc3ccccc3)CC2)c(O)n1Cc1ccc2c(c1)OCO2
IC50: 6.36 µM
IC90: 12.2 µM
CC50: > 40 µM

C(=C\c1nc(N2CCCC2)c2ccccc2n1)/c1ccccc1
IC50: 5.33 µM
IC90: 7.91 µM
CC50: > 40 µM

CCOc1ccc(NC(=O)Nc2ccccc2SC)cc1
CC50: > 40 µM

Cn1c(COc2cccc3ccccc23)nnc1SCC(=O)OC1CCCCC1
IC50: 2.3 µM
IC90: 6.77 µM

Cc1ccccc1N=Nc1ccc(O)c2ncccc12
IC50: 21.1 µM
IC90: > 100 µM
CC50: 0.933 µM

COc1ccc(-c2c(C#N)c(SCC(=O)c3cc4ccccc4oc3=O)nc(C)c2C(=O)Nc2ccccc2)cc1
IC50: 12.2 µM
IC90: 14.2 µM
CC50: 3.41 µM

COc1ccc(/C=C2\SC(=N)N(c3nccs3)C2=O)cc1OC
IC50: < 0.195 µM
IC90: > 100 µM
CC50: 17.9 µM

O=C(NCCCN1CCOCC1)c1ccc([N+](=O)[O-])cc1[N+](=O)[O-]
IC50: 6.25 µM
IC90: > 100 µM

COc1ccc(-c2nnc(NC(=O)C3=COCCO3)o2)cc1
IC50: 12.7 µM
IC90: 19.7 µM
CC50: > 40 µM

Cc1ccc(NC(=O)c2nc[nH]c2C(=O)N[C@@H](C)c2ccccc2)cc1
IC50: 2.16 µM
IC90: 6.42 µM
CC50: > 40 µM

COc1ccc(-c2cc(C(=O)Nc3nc4ccccc4s3)c3ccccc3n2)cc1OC
IC50: 4.02 µM
IC90: > 100 µM

CC(C)Cn1c(N)c(C(=O)COC(=O)c2cnc(Cl)c(Cl)c2)c(=O)n(C)c1=O
IC50: 8.01 µM
IC90: 20.7 µM
CC50: > 40 µM

O=[N+]([O-])c1cc(CN2CCN(c3cccc(C(F)(F)F)c3)CC2)c2cccnc2c1O
IC50: 13.2 µM
IC90: > 100 µM
CC50: 1.49 µM

Cc1coc2c1C(=O)C(=O)c1c-2ccc2c(C)cccc12
IC50: 0.336 µM
IC90: 0.366 µM
CC50: 27.8 µM

COC(=O)COc1cccc(NC(=O)COc2ccccc2)c1
IC50: 2.72 µM
IC90: 4 µM

Cc1ccc(Nc2nc(N3CCN(C)CC3)nc(N)c2[N+](=O)[O-])cc1C
IC50: 9.67 µM
IC90: 14.5 µM

CC1=Nc2ccccc2/C1=C\c1nc(-c2ccc(C(F)(F)F)cc2)oc1O
IC50: 1.71 µM
IC90: > 100 µM
CC50: > 40 µM

Cc1ccc2nc(/C(C#N)=C\c3ccc(OC(=O)c4cccs4)cc3)[nH]c2c1
IC50: 20.4 µM
IC90: > 100 µM
CC50: 22.9 µM

COc1cnc(-c2ccccn2)nc1Sc1ccc(C)cc1
IC50: < 0.195 µM
IC90: 2.92 µM
CC50: 4.24 µM

O=[N+]([O-])c1cc(Cl)c(O)c2ncccc12
IC50: 16.3 µM
IC90: 24.7 µM
CC50: 21.7 µM

O=[N+]([O-])c1cc(O)c2ncccc2c1
IC50: 2.71 µM
IC90: 3.39 µM
CC50: 7.36 µM

COc1cc(CN2CCCC(C(=O)c3ccccc3SC)C2)cc(OC)c1 (stereo not drawn)
IC50: 22.7 µM
IC90: 25.9 µM
CC50: > 40 µM

Cc1ccc(-c2csc(NC(=O)C[n+]3cc(-c4ccc(C)cc4)n4c3CCC4)n2)cc1
IC50: 11.3 µM
IC90: 12.6 µM

O=C(Nc1nc(-c2ccccn2)cs1)C1CCCC1
IC50: 2.54 µM
IC90: 5.83 µM
CC50: > 40 µM

N=c1c2c(ncn1Cc1ccco1)Oc1c(ccc3ccccc13)C2c1ccccc1 (stereo not drawn)
IC50: 3.88 µM
IC90: 5.43 µM
CC50: 8.95 µM

N#Cc1ccc(-c2ccccc2)nc1SCC(=O)c1cc2ccccc2oc1=O
IC50: 1.64 µM
IC90: 2.16 µM
CC50: > 40 µM

CC(C)c1ccc(-n2cccc2/C=C2/C(=N)N3C=CSC3=NC2=O)cc1
IC50: 11.9 µM
IC90: > 100 µM
CC50: > 40 µM

O=C1N=C(N2CCN(c3cccc4ccccc34)CC2)S/C1=C/c1cccs1
CC50: > 40 µM

COc1cccc2sc(Nc3nnc(-c4ccc(F)cc4)o3)nc12
IC50: 9.19 µM
IC90: 11.8 µM
CC50: 16 µM

CCOC(=O)c1cc(-c2csc(COc3ccccc3Cl)n2)on1
IC50: < 0.195 µM
IC90: 3.52 µM

S=c1[nH]cnc2scc(-c3ccc(Br)cc3)c12
IC90: > 100 µM
CC50: 34.8 µM

O=C(CCc1nc(-c2cccs2)no1)Nc1cnc2ccccc2c1
IC90: > 100 µM

Cc1ccc(-n2cc(C(=O)c3ccc(N4CCN(C)CC4)cc3)nn2)cc1Cl
IC50: < 0.391 µM
IC90: 4.59 µM
CC50: 12 µM

c1ccc2c(Nc3ccc4c(c3)OCCO4)c3c(nc2c1)CCCC3
IC50: 11.3 µM
IC90: 29.1 µM
CC50: > 40 µM

Cc1sc(NC(=O)c2ccco2)c(C(c2ccccc2)N2CCC(C)CC2)c1C (stereo not drawn)
CC50: > 40 µM

O=C(OCc1ccc(F)cc1)c1ccc2ccccc2n1
IC50: 8.16 µM
IC90: 14.4 µM

Nc1cc(=O)[nH]c(SCC(=O)Nc2ccccc2-c2ccccc2)n1
IC90: > 100 µM
CC50: > 40 µM

COC(=O)CC(=O)N1CCN(c2ccc(Cl)c(Cl)c2)CC1
IC50: 11.9 µM
IC90: 25.2 µM

Cc1ccc2c(c1)c1ncnc(N3CCc4ccccc4C3)c1n2C
IC50: 6.39 µM
IC90: 11.2 µM

C=CCNc1nnc(Sc2ncccc2[N+](=O)[O-])s1
IC50: 3.96 µM
IC90: 6.01 µM

Cc1cccc(CN2C(=O)[C@@H]3Cc4c([nH]c5ccccc45)C(C)(C)N3C2=O)c1
IC50: 8.69 µM
IC90: 14.3 µM
CC50: > 40 µM
